# Tested on: orthotopic human breast carcinoma xenograft (MCF10DCIS)
# Test: dynamic PET/CT imaging, pharmacokinetics and biodistribution in tumor-bearing mice
# Assay type: in vivo, immunedeficient nu/nu mice
# Protocol: A single (unilateral) orthotopic breast carcinoma xenograft was established in immunedeficient nu/nu mice by injection of human breast ductal carcinoma in situ cells (MCF10DCIS) in Matrigel into one of the upper mammary fat pad.
# Tumor-bearing mice (˜20-25 g) were anesthetized using inhalation of 2% isoflurane in oxygen, and their body temperature maintained at 38° C. by a heating pad with a feedback temperature control. […] Dynamic PET images were acquired in list-mode and reconstructed using OSEM algorithm at multiple time frames post radiotracer administration (0-2, 2-4, 4-6, 6-8, 8-10, 10-20, 20-30, 30-40, 40-50, 50-60 min). Thereafter, while still fixed to the positioning bed, the mice were moved with the bed into the gantry of INVEON SPECT/CT (Siemens), and CT images were acquired over the whole body area for attenuation correction of PET images and for production of PET/CT images. PET/CT fusion images were generated and analyzed in a similar manner as when studying rats.
# [1] = tumor-bearing mice, i.v., bi-exponential clearance from the blood
# [2] = tumor-bearing mice, mono-exponential kinetics
smiles,measurement,setting,value
"OCC1OC(SC2OC(CO)C(O)C(n3cc(-c4cccc([18F])c4)nn3)C2O)C(O)C(n2cc(-c3cccc(F)c3)nn2)C1O [[^18F]FPTDG, 3-(3-[^18F]fluorophenyltriazolyl)-3-deoxy-3′-(3-fluorophenyltriazolyl)-3′-deoxy-1-thio-β-D-digalactopyranoside]",retention in MCF10DCIS xenografts,20 to 60 min post i.v. injection,significant retention
same,accumulation of radioactivity in normal mammary fat pads,"mice, PET/CT",no accumulation of radioactivity was detectable
same,"accumulation or retention of radioactivity in the lungs, muscles, and other organs and tissues","mice, i.v.",extremely low
same,crossing of the blood-brain barrier (radioactivity in the brain),"mice, i.v.",does not cross the blood-brain barrier (BBB) in mice either
same,magnitude of catabolism,"mice, bone accumulation at 60 min post injection",negligible
same,"increased binding and accumulation in MCF10DCIS, as compared to normal breast tissue and muscle (Logan graphical analysis)","mice, muscle as reference tissue",2-3 fold
same,renal clearance,"mice, radioactivity in the bladder","more active in mice, as compared with rats"
same,route of excretion,"tumor-bearing mice, i.v.",predominantly via the hepatobiliary route of excretion
same,blood fast clearance half-time,[1],~0.5 min
same,blood slow clearance half-time,[1],~10.5 min
same,kidney clearance half-time,[2],37 min
same,liver clearance half-time,[2],~120 min
